Tests used:
[1] = tested on: Pseudomonas aeruginosa NCIMB 8626; assay: Zone of inhibition, seeded Mueller-Hinton agar plug-hole assay; format: cell-based; settings: 10 mg compound + 200 ul sterile water per 8 mm plug hole, 37° C., 24 hours, triplicates averaged
Experimental: (§1) Pseudomonas aeruginosa NCIMB 8626 and Staphylococcus aureus NCTC 10788 were harvested. Serial 1:10 dilutions were performed to give a final concentration of 10^8 bacteria/ml. Further dilutions were made for an inoculum count, down to […], with the number of bacteria/ml determined using the pour plate method.
(§2) Two large assay plates were then set up and 140 ml of Mueller-Hinton agar was added evenly to the large assay plates and allowed to dry (15 minutes). A further 140 ml of agar was seeded with the corresponding test organism and poured over the previous agar layer. Once the agar had set (15 minutes), the plate was dried at 37° C. for 30 minutes with the lid removed. 8 mm plugs were removed from the plate by biopsy punch.
(§3) In triplicate, 10 mg of the compounds prepared in Examples 1-3 were placed onto each plug hole followed by 200 ul sterile water. The plates were then sealed and incubated at 37° C. for 24 hours. The size of the microbial, including bacterial, zone cleared was measured using a Vernier calliper gauge, triplicates were averaged: […]

[2] = tested on: Staphylococcus aureus NCTC 10788; assay: as above; format: cell-based; settings: 10 mg compound + 200 ul sterile water per 8 mm plug hole, 37° C., 24 hours, triplicates averaged
Experimental: as §1, §2, §3

| Substance | Zone of Inhibition [1] | Zone of Inhibition [2] |
| --- | --- | --- |
| Silver(III) Chlorhexidine (1,1′-hexamethylenebis[5-(p-chlorophenyl)biguanide] Complex [Example 1] | 5.4 mm | 6.4 mm |
| Silver(III) o-tolybiguanide Complex [Example 3] | 7.4 mm | 8.4 mm |

— US9751833B2, “Antimicrobial biguanide metal complexes” (Smith & Nephew PLC, priority 2005, dated 2017)
